The record followed here is patent US20260083865A1, “PROSTATE SPECIFIC MEMBRANE ANTIGEN (PSMA) LIGANDS AND USE THEREOF” (priority 2022, published 2026).

Where two headings read alike, the source gives them in different places. Bridge positions count the residues as written; N and C are the ends. Square brackets hold non-standard residues; d marks the D form. Peptide text beside a SMILES is read from it. * marks the point of attachment. ξ: configuration not given here. X19 = NC(=O)[C@H](CCCCNC(=O)CCCC[C@@H]1SC[C@@H]2NC(=O)N[C@@H]21)NC(=O)CCC(=O)NCCCOCCOCCOCCCNC(=O)CCC(=O)NCCCOCCOCCOCCCNC(=O)CCC(=O)NCCCOCCOCCOCCCN*; Phe(4-Cl) = N[C@@H](Cc1ccc(Cl)cc1)C(=O)O; Cit = NC(=O)NCCC[C@H](N)C(=O)O; Tle = CC(C)(C)[C@H](N)C(=O)O; Aib = CC(C)(N)C(=O)O; ξM = CSCCC(N)C(=O)O

The target of assay [1] is T1, PSMA-expressing C4-2 cells (Homo sapiens, UniProt Q04609).
T1 construct: PSMA-expressing C4-2 cells (ATCC, Cat. No. CRL-3314) were cultured in RPMI-1640; host or cells: C4-2 cells
T1 sequence (Q04609 whole entry): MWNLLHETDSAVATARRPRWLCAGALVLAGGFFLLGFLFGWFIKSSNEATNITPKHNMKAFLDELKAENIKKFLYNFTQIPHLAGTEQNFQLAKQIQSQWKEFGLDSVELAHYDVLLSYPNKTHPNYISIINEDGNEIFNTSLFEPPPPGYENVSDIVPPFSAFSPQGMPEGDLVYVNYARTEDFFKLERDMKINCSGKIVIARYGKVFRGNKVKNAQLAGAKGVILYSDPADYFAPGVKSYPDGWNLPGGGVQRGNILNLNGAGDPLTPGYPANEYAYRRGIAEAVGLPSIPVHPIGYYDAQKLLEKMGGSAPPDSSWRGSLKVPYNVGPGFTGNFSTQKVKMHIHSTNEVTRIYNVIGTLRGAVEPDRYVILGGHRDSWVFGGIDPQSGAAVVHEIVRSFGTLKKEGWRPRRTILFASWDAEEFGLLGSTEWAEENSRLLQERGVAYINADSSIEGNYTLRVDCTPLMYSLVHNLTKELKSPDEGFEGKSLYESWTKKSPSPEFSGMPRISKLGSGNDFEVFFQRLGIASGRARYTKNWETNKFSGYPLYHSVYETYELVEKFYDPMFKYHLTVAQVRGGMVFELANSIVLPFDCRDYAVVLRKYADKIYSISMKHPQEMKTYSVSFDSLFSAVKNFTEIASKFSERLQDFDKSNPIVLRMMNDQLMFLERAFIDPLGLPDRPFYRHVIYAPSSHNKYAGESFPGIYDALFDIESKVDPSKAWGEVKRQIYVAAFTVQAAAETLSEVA
Kind of assay: FACS binding assay (competition with 50 nM PSM-0183). To be noted: C4-2 cells, read-out: pIC50 [C4-2] CAT (converted). Here is the method:
In order to determine binding of compounds according to the present invention to PSMA-expressing cells, a FACS binding assay was established.
PSMA-expressing C4-2 cells (ATCC, Cat. No. CRL-3314) were cultured in RPMI-1640 (Pan Biotech, Cat. No. P04-18050) including 10% fetal calf serum (Biochrom) and 100 U/ml penicillin and 100 μg/mL streptomycin (Sigma, Cat. No. P0781). Cells were detached with Accutase (Biolegend, Cat. No. BLD-423201) and washed in FACS buffer (PBS (Sigma, Cat. No. D8537) including 1% fetal calf serum). Cells were diluted in FACS buffer to a final concentration of 500,000 cells per mL. 200 μL of the cell suspension were transferred to a u-shaped non-binding 96-well plate (Greiner Bio-One, Cat. No. 650901) and cells were washed in ice-cold FACS buffer.
For IC50 determination, C4-2 cells were incubated with 50 nM PSM-0183 (Ac-Thr-Aib-Phe[Cys-Lys-Arg-Aib-Asn-Cys]-Tle-Thr-Asp-Ttds-Ttds-AF488N3K-NH2) in the presence of increasing concentrations of test compounds at 4° C. for 1 hour. After two wash steps with ice-cold FACS buffer, cells were analyzed in an Attune NxT flow cytometer. Median fluorescence intensities (MFI) of the FITC/AF488-channel were calculated by Attune NxT software. MFI values were plotted against peptide concentration and four parameter logistic (4PL) curve fitting and IC50/pIC50 calculations were performed using ActivityBase software (IDBS).
(Flow cytometry measures light scatter and fluorescence of single cells or particles in a stream.)

The target of assay [2] is T2, Fc-fusion protein of human PSMA (hPSMA-Fc) (Homo sapiens, UniProt Q04609).
T2 construct: purchased Acro Biosystems PSA-H5264
T2 sequence (Q04609 44-750 limits assumed): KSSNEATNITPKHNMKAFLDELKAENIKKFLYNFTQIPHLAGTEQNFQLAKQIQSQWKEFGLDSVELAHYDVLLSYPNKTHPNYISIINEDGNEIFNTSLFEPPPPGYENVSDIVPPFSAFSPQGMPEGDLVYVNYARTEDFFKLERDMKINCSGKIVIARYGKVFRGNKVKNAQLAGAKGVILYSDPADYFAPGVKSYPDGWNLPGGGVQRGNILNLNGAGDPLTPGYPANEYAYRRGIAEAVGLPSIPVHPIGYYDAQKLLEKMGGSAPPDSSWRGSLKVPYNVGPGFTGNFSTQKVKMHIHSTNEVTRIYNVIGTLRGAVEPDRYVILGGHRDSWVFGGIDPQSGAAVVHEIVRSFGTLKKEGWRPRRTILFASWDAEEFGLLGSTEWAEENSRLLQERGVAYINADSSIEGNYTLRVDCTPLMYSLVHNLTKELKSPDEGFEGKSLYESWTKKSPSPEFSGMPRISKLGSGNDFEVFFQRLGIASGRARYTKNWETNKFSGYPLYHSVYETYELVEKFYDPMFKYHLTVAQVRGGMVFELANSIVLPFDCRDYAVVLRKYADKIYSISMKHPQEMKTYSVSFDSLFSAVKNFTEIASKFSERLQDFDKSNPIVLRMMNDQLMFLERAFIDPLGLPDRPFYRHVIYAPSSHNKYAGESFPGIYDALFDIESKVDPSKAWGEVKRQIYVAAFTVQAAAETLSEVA
Kind of assay: Surface plasmon resonance assay (Biacore T200, single cycle kinetic). Format: binding. The following applies: hPSMA-Fc, 25° C., read-out: pKD CAT (converted). Here is the method: Surface plasmon resonance (SPR) studies were performed using a Biacore™ T200 SPR system. Briefly, polarized light is directed towards a gold-labeled sensor surface, and minimum intensity reflected light is detected. The angle of reflected light changes as molecules bind and dissociate.
Fc-fusion protein of human PSMA (hPSMA-Fc, Acro Biosystems, Cat #PSA-H5264) was captured on a Fc-capture chip (Biacore™ CM5 sensor chip coated with ˜300 RU of an Fc-binding peptide). hPSMA-Fc was diluted in Running Buffer (HBST, 0.1% DMSO) to a final concentration of 100 nM and then flushed over the Fc-capture chip to immobilized ˜1000 RUs.
Stock solutions of test compounds were prepared by dissolving each compound in DMSO. DMSO stock solution were diluted 1:1000 in Running Buffer without DMSO. Further sequential dilutions were made with Running Buffer containing 0.1% DMSO. SPR binding analyses were performed in Single Cycle Kinetic (SCK) mode at 25° C. Flow cell coated with the Fc-binding peptide only served as reference flowcell. After each SCK run, hPSMA-Fc was removed with 10 mM glycine buffer, pH 1.5.
In between every three SCK measurements, a blank run with Running Buffer instead of test compound was included to correct for baseline drifts (double blanking method).
Table 5 describes the protocol steps for Fc-fusion target capturing and assessment of the binding kinetics.
For each test compound, SPR raw data in the form of resonance units (RU) were plotted as sensorgrams using the Biacore™ T200 control software. The signal from the blank sensorgram was subtracted from that of the test compound sensorgram (blank corrected). The blank corrected sensorgram was corrected for baseline drift by subtracting the sensorgram of a SCK run without the test compound (running buffer only). The dissociation constant (KD) was calculated from Blank-normalized SPR data using the 1:1 Langmuir binding model from the Biacore™ Insight Evaluation software. The pKD value (negative decadic logarithm of dissociation constant) was calculated using Microsoft Excel.
A general note: In SPR one partner is held on a chip, and binding of the other changes the refractive index at the surface.

[3] abbreviates: FACS binding, competition with 50 nM PSM-0183, category.
Where [4] appears, read: SPR, single cycle kinetic, category.

As for `CCCC[C@H](NC(=O)[C@@H]1CSSC[C@H](NC(=O)[C@H](Cc2ccccc2)NC(=O)[C@H](C)NC(=O)[C@@H](NC(C)=O)[C@@H](C)O)C(=O)N[C@@H](CCCCN)C(=O)N[C@@H](CCCNC(=N)N)C(=O)N[C@@H](C)C(=O)N[C@@H](CC(N)=O)C(=O)N1)C(=O)N[C@H](C(=O)N[C@H](CC(=O)O)C(N)=O)[C@@H](C)O` (single isomer, unassigned) [PSM-0436, Ac-Thr-Ala-phe-[Cys-Lys-Arg-Ala-Asn-Cys]-Nle-Thr-Asp-NH2], in assay [1] (pIC50 category of FACS binding), the IC50 was above 3160 nM. In assay [2] (pKD category for PSMA SPR activity assay), the Kd is above 501 nM.

Regarding `CC(=O)N[C@H](C(=O)NC(C)(C)C(=O)N[C@@H](Cc1ccccc1)C(=O)N[C@H]1CSSC[C@@H](C(=O)N[C@H](C(=O)N[C@H](C(N)=O)[C@@H](C)O)C(C)(C)C)NC(=O)[C@H](CC(N)=O)NC(=O)C(C)(C)NC(=O)[C@H](CCCNC(=N)N)NC(=O)[C@H](CCCCN)NC1=O)[C@@H](C)O` [PSM-0178, Ac-Thr-Aib-Phe-[Cys-Lys-Arg-Aib-Asn-Cys]-Tle-Thr-NH2] (Ac-T[Aib]FCKR[Aib]NC[Tle]T-NH2; disulfide 4-9), in assay [1] (setting [3]), the IC50 is below 200 nM. In assay [2] (setting [4]), the Kd is below 12.6 nM.

With `CC(=O)N[C@H](C(=O)NC(C)(C)C(=O)N[C@@H](Cc1ccc(Cl)cc1)C(=O)N[C@H]1CSSC[C@@H](C(=O)N[C@H](C(=O)N[C@H](C(N)=O)[C@@H](C)O)C(C)(C)C)NC(=O)[C@H](CC(N)=O)NC(=O)C(C)(C)NC(=O)[C@H](CCCNC(N)=O)NC(=O)[C@H](CCCCN)NC1=O)[C@@H](C)O` [PSM-0179, Ac-Thr-Aib-Pcf-[Cys-Lys-Cit-Aib-Asn-Cys]-Tle-Thr-NH2] (Ac-T[Aib][Phe(4-Cl)]CK[Cit][Aib]NC[Tle]T-NH2; disulfide 4-9), the IC50 in assay [1] (setting [3]) was below 200 nM. In assay [2] (setting [4]), the Kd is below 12.6 nM.

As for `CC(=O)N[C@H](C(=O)NC(C)(C)C(=O)N[C@@H](Cc1ccccc1)C(=O)N[C@H]1CSSC[C@@H](C(=O)N[C@H](C(=O)N[C@H](C(=O)N[C@@H](CC(=O)O)C(=O)NCCCOCCOCCOCCCNC(=O)CCC(=O)NCCCOCCOCCOCCCNC(=O)CCC(=O)N[C@H](CCCCn2nnc3c2-c2ccccc2CN(C(=O)CCNC(=O)c2ccc(-c4c5ccc(=N)c(S(=O)(=O)O)c-5oc5c(S(=O)(=O)O)c(N)ccc45)c(C(=O)O)c2)c2ccccc2-3)C(N)=O)[C@@H](C)O)C(C)(C)C)NC(=O)[C@H](CC(N)=O)NC(=O)C(C)(C)NC(=O)[C@H](CCCNC(=N)N)NC(=O)[C@H](CCCCN)NC1=O)[C@@H](C)O` [PSM-0183, Ac-Thr-Aib-Phe-[Cys-Lys-Arg-Aib-Asn-Cys]-Tle-Thr-Asp-Ttds-Ttds-AF488N3K-NH2], the Kd in assay [2] (setting [4]) is below 12.6 nM.

Consider `CSCCC(N)C(=O)N[C@H](C(=O)N[C@@H](C)C(=O)N[C@@H](Cc1ccccc1)C(=O)N[C@H]1CSSC[C@@H](C(=O)N[C@@H](CC(C)C)C(=O)N[C@H](C(=O)N[C@@H](CC(=O)O)C(=O)NCC(=O)N[C@@H](CO)C(=O)NCCCOCCOCCOCCCNC(=O)CCC(=O)NCCCOCCOCCOCCCNC(=O)CCC(=O)NCCCOCCOCCOCCCNC(=O)CCC(=O)N[C@@H](CCCCNC(=O)CCCC[C@@H]2SC[C@@H]3NC(=O)N[C@@H]32)C(N)=O)[C@@H](C)O)NC(=O)[C@H](CC(N)=O)NC(=O)[C@H](C)NC(=O)[C@H](CCCNC(=N)N)NC(=O)[C@H](CCCCN)NC1=O)[C@@H](C)O` (stereo partly drawn) [PSM-0226, H-Met-Thr-Ala-Phe-[Cys-Lys-Arg-Ala-Asn-Cys]-Leu-Thr-Asp-Gly-Ser-Ttds-Ttds-Ttds-Lys(Bio)-NH2] (H-[ξM]TAFCKRANCLTDGS-X19; disulfide 5-10), for which the IC50 in assay [1] (setting [3]) was 200 to 1260 nM.
